Data reported in US10772893B2, “2-(morpholin-4-yl)-1,7-naphthyridines” (BAYER PHARMA AKTIENGESELLSCHAFT, priority 2014, dated 2020).
One block for each compound: values may come before it.

Tests used:
Test in all cases: Proliferation assay, crystal violet staining
HeLa-MaTu-ADR cells = type: cell-based; conditions: Homo sapiens, 96 h, 4 days incubation, read-out: Inhibition of HeLa-MaTu-ADR cell proliferation
Description: (§1) After 24 hours, the cells of one plate (zero plate) were dyed with crystal violet (see below), whereas the medium of the other plates was replaced with fresh culture medium (200 μl) to which the test substances were added in various concentrations (0 μM, and also in the range of 0.001-10 μM; the final concentration of the solvent dimethyl sulphoxide was 0.1 or 0.5%). The cells were incubated for 4 days in the presence of the test substances. […] After washing the fixed cells three times with water, the plates were dried at room temperature. The cells were stained by adding 100 μl/measurement point of a 0.1% strength crystal violet solution (pH adjusted to pH 3 by adding acetic acid). After washing the cells three times with water, the plates were dried at room temperature. The dye was dissolved by adding 100 μl/measurement point of a 10% strength acetic acid solution. […] The percentage change in cell growth was calculated by normalizing the measured values to the absorbance values of the zero plate (=0%) and the absorbance of the untreated (0 W) cells (=100%). The IC50 values were determined by means of a four parameter fit.

Caco-2 cells = type: cell-based; conditions: Homo sapiens, Caco-2, 96 h, 4 days incubation, read-out: Inhibition of Caco-2 cell proliferation
Description: as §1

NCI-H460 cells = conditions: Homo sapiens, NCI-H460, 96 h, read-out: Inhibition of NCI-H460 cell proliferation, NCI-H460 cells, 4 days incubation
Description: as §1

DU145 cells = conditions: Homo sapiens, DU-145, 96 h, read-out: Inhibition of DU145 cell proliferation, DU145 cells, 4 days incubation
Description: as §1

HeLa cells = conditions: Homo sapiens, 96 h, read-out: Inhibition of HeLa cell proliferation, HeLa cells, 4 days incubation
Description: as §1

IC50 (HeLa-MaTu-ADR cells): > 3000 nM | IC50 (Caco-2 cells): > 3000 nM | IC50 (HeLa cells): 731 nM
SMILES: c1cc(-c2nccc3c(N4CCn5ccnc5C4)cc(N4CCOCC4)nc23)[nH]n1 [Example 169, 4-(5,6-dihydroimidazo[1,2-a]pyrazin-7(8H)-yl)-2-(morpholin-4-yl)-8-(1H-pyrazol-5-yl)-1,7-naphthyridine]

IC50 (HeLa cells): 575 nM
SMILES: Cc1nnc(-c2cc(N3CCOC[C@H]3C)nc3c(-c4ccn[nH]4)nccc23)o1 [Example 136, 2-[(3R)-3-methylmorpholin-4-yl]-4-(5-methyl-1,3,4-oxadiazol-2-yl)-8-(1H-pyrazol-5-yl)-1,7-naphthyridine]

IC50 (HeLa cells): 2440 nM
SMILES: Fc1cccc(-c2cc(N3CCOCC3)nc3c(-c4ccn[nH]4)nccc23)c1 [Example 298, 4-(3-fluorophenyl)-2-(morpholin-4-yl)-8-(1H-pyrazol-5-yl)-1,7-naphthyridine]

IC50 (HeLa cells): 352 nM
SMILES: C[C@@H]1COCCN1c1cc(-c2ccns2)c2ccnc(-c3ccn[nH]3)c2n1 [Example 121, 2-[(3R)-3-methylmorpholin-4-yl]-8-(1H-pyrazol-5-yl)-4-(1,2-thiazol-5-yl)-1,7-naphthyridine]

IC50 (HeLa cells): 417 nM
SMILES: O=S1(=Nc2cc(N3CCOCC3)nc3c(-c4ccn[nH]4)nccc23)CCCCC1 [Example 280, N-[2-(morpholin-4-yl)-8-(1H-pyrazol-5-yl)-1,7-naphthyridin-4-yl]hexahydro-1λ^4-thiopyran-1-imine 1-oxide]

IC50 (HeLa cells): > 3000 nM
SMILES: Clc1ccccc1-c1cc(N2CCOCC2)nc2c(-c3ccn[nH]3)nccc12 [Example 333, 4-(2-chlorophenyl)-2-(morpholin-4-yl)-8-(1H-pyrazol-5-yl)-1,7-naphthyridine]

IC50 (HeLa cells): > 3000 nM
SMILES: CS(=O)(=O)Nc1ccccc1-c1cc(N2CCOCC2)nc2c(-c3ccn[nH]3)nccc12 [Example 322, N-{2-[2-(morpholin-4-yl)-8-(1H-pyrazol-5-yl)-1,7-naphthyridin-4-yl]phenyl}methanesulfonamide]

IC50 (HeLa cells): 225 nM
SMILES: CCCn1nccc1-c1cc(N2CCOC[C@H]2C)nc2c(-c3ccn[nH]3)nccc12 [Example 117, 2-[(3R)-3-methylmorpholin-4-yl]-4-(1-propyl-1H-pyrazol-5-yl)-8-(1H-pyrazol-5-yl)-1,7-naphthyridine]

IC50 (HeLa cells): > 3000 nM
SMILES: CP(C)(=O)c1cc(N2CCOCC2)nc2c(-c3ccn[nH]3)nccc12 [Example 177, 4-(dimethylphosphoryl)-2-(morpholin-4-yl)-8-(1H-pyrazol-5-yl)-1,7-naphthyridine]

IC50 (HeLa cells): 485 nM
SMILES: C[C@@H]1COCCN1c1cc(-c2cnn(CCO)c2)c2ccnc(-c3ccn[nH]3)c2n1 [Example 260]

IC50 (HeLa cells): 300 nM
SMILES: Cc1ncccc1-c1cc(N2CCOC[C@H]2C)nc2c(-c3ccn[nH]3)nccc12 [Example 218, 2-[(3R)-3-methylmorpholin-4-yl]-4-(2-methylpyridin-3-yl)-8-(1H-pyrazol-5-yl)-1,7-naphthyridine]

IC50 (HeLa cells): > 3000 nM
SMILES: c1cc(-c2cc(N3CCOCC3)nc3c(-c4ccn[nH]4)nccc23)c2cccnc2c1 [Example 349, 2-(morpholin-4-yl)-8-(1H-pyrazol-5-yl)-4-(quinolin-5-yl)-1,7-naphthyridine]

IC50 (HeLa cells): 284 nM
SMILES: Cc1nc(S(C)(=N)=O)ccc1-c1cc(N2CCOC[C@H]2C)nc2c(-c3ccn[nH]3)nccc12 (stereo partly drawn) [Example 116, 4-[2-methyl-6-(S-methylsulfonimidoyl)pyridin-3-yl]-2-[(3R)-3-methylmorpholin-4-yl]-8-(1H-pyrazol-5-yl)-1,7-naphthyridine]

IC50 (HeLa cells): 565 nM
SMILES: C[C@@H]1COCCN1c1cc(-c2ncco2)c2ccnc(-c3ccn[nH]3)c2n1 [Example 270, 2-[(3R)-3-methylmorpholin-4-yl]-4-(1,3-oxazol-2-yl)-8-(1H-pyrazol-5-yl)-1,7-naphthyridine]

IC50 (HeLa cells): 1590 nM
SMILES: C[C@@H]1COCCN1c1cc(P(C)(C)=O)c2ccnc(-c3ccn[nH]3)c2n1 [Example 142, 4-(dimethylphosphoryl)-2-[(3R)-3-methylmorpholin-4-yl]-8-(1H-pyrazol-5-yl)-1,7-naphthyridine]

IC50 (HeLa cells): 1180 nM
SMILES: C[C@@H]1COCCN1c1cc(C(C)(O)C2CCOCC2)c2ccnc(-c3ccn[nH]3)c2n1 (stereo partly drawn) [Example 282, 1-{2-[(3R)-3-methylmorpholin-4-yl]-8-(1H-pyrazol-5-yl)-1,7-naphthyridin-4-yl}-1-(tetrahydro-2H-pyran-4-yl)ethanol]

IC50 (HeLa cells): 2980 nM
SMILES: COc1cccc(-c2cc(N3CCOCC3)nc3c(-c4ccn[nH]4)nccc23)c1F [Example 317, 4-(2-fluoro-3-methoxyphenyl)-2-(morpholin-4-yl)-8-(1H-pyrazol-5-yl)-1,7-naphthyridine]

More lines, now with the values behind:

SMILES: CS(=O)(=O)c1ccc(-c2cc(N3CCOCC3)nc3c(-c4ccn[nH]4)nccc23)c(F)c1 [Example 24]
IC50 (HeLa-MaTu-ADR cells): 3410 nM | IC50 (Caco-2 cells): 833 nM | IC50 (NCI-H460 cells): 378 nM | IC50 (DU145 cells): 1350 nM

SMILES: Clc1cc(N2CCOCC2)nc2c(-c3cc[nH]n3)nccc12 [Example 62, 4-chloro-2-morpholin-4-yl-8-(1H-pyrazol-3-yl)-[1,7]naphthyridine]
IC50 (HeLa cells): 164 nM | IC50 (NCI-H460 cells): > 3000 nM

SMILES: C[C@@H]1COCCN1c1cc(N2CCNCC2)c2ccnc(-c3ccn[nH]3)c2n1 [Example 66, 2-[(3R)-3-methylmorpholin-4-yl]-4-(piperazin-1-yl)-8-(1H-pyrazol-5-yl)-1,7-naphthyridine]
IC50 (Caco-2 cells): 3350 nM | IC50 (NCI-H460 cells): 127 nM

SMILES: CN=S(C)(=O)c1ccc(-c2cc(N3CCOCC3)nc3c(-c4ccn[nH]4)nccc23)cc1 (centres unmarked) [Example 5, 4-(4-(N,S-dimethylsulfonimidoyl)phenyl)-2-[morpholin-4-yl]-8-(1H-pyrazol-5-yl)-1,7-naphthyridine]
IC50 (HeLa-MaTu-ADR cells): > 3000 nM | IC50 (Caco-2 cells): 2190 nM | IC50 (NCI-H460 cells): 641 nM | IC50 (DU145 cells): 368 nM

SMILES: CS(=O)(=O)C1(c2cc(N3CCOCC3)nc3c(-c4ccn[nH]4)nccc23)CC1 [Example 39, 4-(1-methanesulphonycyclopropyl)-2-(morpholin-4-yl)-8-(2H-pyrazol-3-yl)-[1,7]naphthyridine]
IC50 (HeLa cells): 1050 nM | IC50 (NCI-H460 cells): 400 nM | IC50 (DU145 cells): 837 nM

SMILES: CS(=O)(=O)c1ccc(-c2cc(N3CCOCC3)nc3c(-c4cc[nH]n4)nccc23)cc1 [Example 7, 4-(4-methanesulphonylphenyl)-2-(morpholin-4-yl)-8-(1H-pyrazol-3-yl)-[1,7]naphthyridine]
IC50 (Caco-2 cells): 5950 nM | IC50 (HeLa cells): 1330 nM | IC50 (NCI-H460 cells): 1020 nM | IC50 (DU145 cells): 1590 nM

SMILES: C[C@@H]1COCCN1c1cc(OCCCCN)c2ccnc(-c3ccn[nH]3)c2n1 [Example 57, 4-({2-[(3R)-3-methylmorpholin-4-yl]-8-(1H-pyrazol-5-yl)-1,7-naphthyridin-4-yl}oxy)butan-1-amine]
IC50 (NCI-H460 cells): 374 nM | IC50 (DU145 cells): 1560 nM

SMILES: C[C@@H]1COCCN1c1cc(N(C)CC(C)(C)C)c2ccnc(-c3ccn[nH]3)c2n1 [Example 83, N-(2,2-dimethylpropyl)-N-methyl-2-[(3R)-3-methylmorpholin-4-yl]-8-(1H-pyrazol-5-yl)-1,7-naphthyridin-4-amine]
IC50 (HeLa cells): 331 nM

SMILES: Cc1nc(F)ccc1-c1cc(N2CCOC[C@H]2C)nc2c(-c3ccn[nH]3)nccc12 [Example 97, 4-(6-fluoro-2-methylpyridin-3-yl)-2-[(3R)-3-methylmorpholin-4-yl]-8-(1H-pyrazol-5-yl)-1,7-naphthyridine]
IC50 (HeLa cells): 252 nM

SMILES: CC1CCN(c2cc(N3CCOC[C@H]3C)nc3c(-c4ccn[nH]4)nccc23)CC1 [Example 109, 2-[(3R)-3-methylmorpholin-4-yl]-4-(4-methylpiperidin-1-yl)-8-(1H-pyrazol-5-yl)-1,7-naphthyridine]
IC50 (HeLa cells): 298 nM

SMILES: CSc1cc(N2CCOC[C@H]2C)nc2c(-c3ccn[nH]3)nccc12 [Example 63, 2-[(3R)-3-methylmorpholin-4-yl]-4-(methylsulfanyl)-8-(1H-pyrazol-5-yl)-1,7-naphthyridine]
IC50 (HeLa-MaTu-ADR cells): 1530 nM | IC50 (Caco-2 cells): 1540 nM | IC50 (NCI-H460 cells): 308 nM | IC50 (DU145 cells): 915 nM

SMILES: C[C@@H]1COCCN1c1cc(-c2ccnn2C2CC2)c2ccnc(-c3ccn[nH]3)c2n1 [Example 80, 4-(1-cyclopropyl-1H-pyrazol-5-yl)-2-[(3R)-3-methylmorpholin-4-yl]-8-(1H-pyrazol-5-yl)-1,7-naphthyridine]
IC50 (HeLa cells): 187 nM

SMILES: COc1cc(N2CCOC[C@H]2C)nc2c(-c3cc[nH]n3)nccc12 [Example 53, 4-methoxy-2-((R)-3-methylmorpholin-4-yl)-8-(1H-pyrazol-3-yl)-[1,7]naphthyridine]
IC50 (HeLa cells): 1410 nM

SMILES: COc1ncc(-c2cc(N3CCOC[C@H]3C)nc3c(-c4ccn[nH]4)nccc23)cc1C [Example 96, 4-(6-methoxy-5-methylpyridin-3-yl)-2-[(3R)-3-methylmorpholin-4-yl]-8-(1H-pyrazol-5-yl)-1,7-naphthyridine]
IC50 (HeLa cells): 169 nM

SMILES: C[C@@H]1COCCN1c1cc(N=S2(=O)CCOCC2)c2ccnc(-c3ccn[nH]3)c2n1 [Example 64, N-{2-[(3R)-3-methylmorpholin-4-yl]-8-(1H-pyrazol-5-yl)-1,7-naphthyridin-4-yl}-1,4λ^4-oxathian-4-imine 4-oxide]
IC50 (HeLa-MaTu-ADR cells): 1170 nM | IC50 (Caco-2 cells): 844 nM | IC50 (NCI-H460 cells): 92.3 nM | IC50 (DU145 cells): 506 nM

SMILES: C[C@@H]1COCCN1c1cc(-c2cccn2C)c2ccnc(-c3ccn[nH]3)c2n1 [Example 91, 2-[(3R)-3-methylmorpholin-4-yl]-4-(1-methyl-1H-pyrrol-2-yl)-8-(1H-pyrazol-5-yl)-1,7-naphthyridine]
IC50 (HeLa cells): 108 nM

SMILES: C[C@@H]1COCCN1c1cc(S(C)(=O)=O)c2ccnc(-c3ccn[nH]3)c2n1 [Example 33, 2-[(3R)-3-methylmorpholin-4-yl]-4-(methylsulfonyl)-8-(1H-pyrazol-5-yl)-1,7-naphthyridine]
IC50 (HeLa-MaTu-ADR cells): > 3000 nM | IC50 (Caco-2 cells): 653 nM | IC50 (NCI-H460 cells): 269 nM | IC50 (DU145 cells): 1010 nM
